{"source": "patent US20150292032A1", "about": "“TREATMENT OF CANCER BY TARGETING QUIESCENT CANCER CELLS” (FELICITEX THERAPEUTICS, INC., priority 2012, published 2015)", "key": {"[1]": {"tested_on": "Panc-1 pancreatic cancer cells", "assay": "Quiescent (G0) cell fraction in serum-starved Panc-1 cells, two-parameter flow cytometry (Pyronin Y / Hoechst)", "format": "cell-based, human", "description": "Panc-1 cells were forced into the quiescent state by serum deprivation for 48 hours. Panc-1 were cultured in DMEM+0.2% FBS for 48 hours. Next the cells were switched to fresh media DMEM+10% FBS (panel A) or to fresh media DMEM+1-% FBS supplemented with 0.25 μM DYRK1B inhibitor R (panel B). As a result of this serum deprivation, 42% of cells were identified in G0 quiescent state, as depicted in FIG. 5A. The percentage of quiescent cells was identified by flow cytometry FACS analysis.\nNext, a DYRK1B small molecule inhibitor R, pictured in FIG. 7, was applied to inhibit the activity of DYRK1B kinase, and the percentage of quiescent cells was again analyzed. […] Upon inhibition of the activity of DYRK1B kinase, pancreatic cancer cells left the G0 quiescent state and progressed into cell cycle. While the number of quiescent cells had been reduced to 27% in the presence of DYRK1B inhibitor R, the number of cells in S-phase of cell cycle doubled (13%) as compared to control cells (6% in FIG. 5A). DYRK1B kinase activity was necessary for Panc-1 pancreatic cancer cells to accumulate in a quiescent state. The distribution of cellular population within the cell cycle (i.e. G0, G1, S and G2/M populations) was analyzed by two-parameter flow cytometry. Specifically, the incorporation of Pyronin Y and Hoechst staining correlated to RNA and DNA content distribution, respectively. (Ewton, D. Z., Hu, J., Vilenchik, M., Deng, X., Luk, K. C., Polonskaia, A., Hoffman, A. F., Zipf, K., Boylan, J. F., and Friedman, E. A. (2011) Inactivation of mirk/dyrk1b kinase targets quiescent pancreatic cancer cells, Molecular Cancer Therapeutics 10, 2104-2114)."}, "[2]": {"tested_on": "colon cancer cell line SW620", "assay": "S-phase fraction of cycling log-phase SW620 cells, BrdU pulse / PI flow cytometry", "format": "cell-based, human", "conditions": "1 μM, 24 hours", "description": "An experiment was run to determine if inhibition of DYRK1B activity would facilitate cells escaping quiescence and result in surge of proliferating cells, utilizing small molecule inhibitor R. Cycling, log-phase cells from colon cancer cell line SW620 were treated with 1 μM of DYRK1B inhibitor R for 24 hours with 1 hour pulse of BrdU before analysis by flow cytometry after propidium iodine staining of DNA. 38% of the cellular population was detected in the S-phase of the cell cycle. Parallel cultures were treated with the small molecule DYRK1B inhibitor R for 24 hours followed by identical FACS analysis (1-hour BrdU pulse followed by specific mAB-FITC and PI staining)."}}}
{"compound": "COc1ncc2cc(C(=O)Nc3cc(C(=O)NCc4cccc(Cl)c4)ccc3Cl)c(=O)[nH]c2n1", "note": "[inhibitor R]", "values": [{"measurement": "percentage of Panc-1 cells in G0 quiescent state", "setting": "[1]; Panc-1, 48 h serum deprivation (DMEM+0.2% FBS), then fresh media with 0.25 μM inhibitor, FACS, control 42%", "value": 27, "unit": "%"}, {"measurement": "number of cells in S-phase of cell cycle", "setting": "[1]; Panc-1, 48 h serum deprivation, then fresh media with 0.25 μM inhibitor, FACS, control 6%", "value": 13, "unit": "%"}, {"measurement": "entry of additional Panc-1 cells into quiescence", "setting": "[1]; Panc-1, presence of inhibitor", "value": "blocked additional Panc-1 cells from entering quiescence"}, {"measurement": "increase of fraction of S-phase cells compared to non-treated control", "setting": "[2]", "value": 29, "unit": "%"}, {"measurement": "S-phase population of cells", "setting": "[2]; 1 hour BrdU pulse, control 38%", "value": 49, "unit": "%"}]}
